“Also recorded” adds a separate entry of the source.
Legend:
[1] = tested on: EKP induced seizures in zebrafish larvae; experiment: Zebrafish drug resistant epilepsy model: ethyl ketopentenoate (EKP), locomotor tracking; assay type: in vivo; settings: for activity after EKP exposure (locomotor activity relative to EKP only): 1 μM compound, 300 μM EKP, 30 min recording; for effect on EKP induced seizures (locomotor activity, actinteg units): 7 dpf larvae, compound at MTC (CQ 3 μM, CH 3.125 μM, PBT-1033 6 μM) 2 h before 300 μM EKP
Description: Larvae (7 dpf) in 100 μl VHC were arrayed individually in a 96-well plate (tissue culture plate, at bottom, Falcon, USA) and kept in the light at 28° C. Two-hours before tracking compound (clioquinol (CQ), chloroxine (CH), PBT-1033) and/or inhibitor (disulfiram (DS), CBR) was added at their MTC to the larvae and afterwards the 96-well plates were placed in darkness at 28° C. for 2 hours. Just prior to tracking 100 µl of VHC or EKP stock solution was added to each well to obtain a EKP concentration of 300 μM. The plates were placed in an automated video tracking device (ZebraBox™ apparatus; Viewpoint, Lyon, France) and the locomotor behavior of the larvae was monitored for 40 min in the dark at 28° C. Locomotor activity was quantified using ZebraLab™ software (Viewpoint, Lyon, France) and expressed in “actinteg” units per 5-min interval. For each larvae, 30 min of tracking data after the effect of EKP was initiated was used. The actinteg value is defined as the sum of all image pixel changes detected during the time window.
Locomotor activity was quantified using ZebraLab™ software (Viewpoint, Lyon, France) and expressed in mean “actinteg” units per 5-min+/−SEM during a 30 min recording interval relative to EKP only. Statistical analysis: one-way ANOVA with Dunnett's multiple comparison test. A statistical difference is indicated by: ****p<0.0001. For each condition n=10 larvae were used and the experiment was performed two times (n total=20 per condition).

human Phgdh = target: T1, human Phgdh (Homo sapiens, UniProt O43175); experiment: Phgdh activity assay (colorimetric kit, NADH at 450 nm); assay type: biochemical; settings: for Phgdh activation (in words): 25 μM compound
T1 construct: purchased BPS bioscience 71079
T1 sequence (O43175 1-533): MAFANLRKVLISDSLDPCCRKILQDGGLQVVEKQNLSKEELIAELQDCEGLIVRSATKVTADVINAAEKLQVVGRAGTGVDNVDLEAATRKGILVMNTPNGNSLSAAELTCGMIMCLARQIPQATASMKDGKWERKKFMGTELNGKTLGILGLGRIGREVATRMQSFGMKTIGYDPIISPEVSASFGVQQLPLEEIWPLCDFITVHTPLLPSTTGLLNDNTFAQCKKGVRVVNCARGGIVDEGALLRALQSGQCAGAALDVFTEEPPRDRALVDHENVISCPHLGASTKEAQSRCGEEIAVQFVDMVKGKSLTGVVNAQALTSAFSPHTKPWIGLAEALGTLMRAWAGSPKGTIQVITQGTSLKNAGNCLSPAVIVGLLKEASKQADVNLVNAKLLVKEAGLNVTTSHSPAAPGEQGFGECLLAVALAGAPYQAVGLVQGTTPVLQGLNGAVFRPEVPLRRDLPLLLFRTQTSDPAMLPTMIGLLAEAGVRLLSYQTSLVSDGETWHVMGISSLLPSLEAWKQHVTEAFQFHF
Description: Phgdh enzyme activity upon drug treatment was tested using human Phgdh (BPS bioscience, 71079) and a specific colorimetric Phgdh activity kit (Biovision, K569). The Phgdh inhibitor Disulfiram [Spillier et al. (2019) Sci Rep. 9, 4737], served as […].
Briefly, Human Phgdh enzyme was diluted in assay buffer at a concentration of 0.38 mg/mL. Next, 5 μl of this Phgdh enzyme solution and 5 μL of the compounds in 5% DMSO and assay buffer was added (to wells of flat bottom 96-well plate). Subsequently, 40 μl Phgdh assay buffer (Biovision) and 50 μl Phgdh reaction mix (prepared as described in the protocol of the Phgdh assay kit K569, Biovision) was added. The final amount of enzyme per reaction was 0.35 μM. Afterwards, absorbance at 450 nm, indicative for the amount of NADH generated, was measured over time. NADH is one of the end products of the reaction. In between measurements, the plate was incubated at 37° C., protected from light.

Scn1Lab mutant larvae = experiment: Zebrafish model of Dravet syndrome, locomotor behavioural assay; assay type: in vivo; settings: 6 dpf larvae, MTC concentration in 0.1% DMSO, 2 h incubation, normalized to VHC-treated mutants
Description: 6 dpf Scn1Lab mutant larvae (selected by their darker appearance, lack of a swim bladder and slight curvature of the body on 6 dpf) and WT larvae were arrayed in a 96-well plate (one larva per well) and treated with 100 μl VHC (0.1% DMSO) or compound (MTC concentration in 0.1% DMSO). After incubation at 28° C. on a 14/10 h light/dark cycle for 2 h, the plates were immediately placed in an enclosed tracking device (ZebraBox Viewpoint, France) and chamber habituation for 30 min. The locomotor activity of the larvae were evaluated during 10 min under dark conditions and quantified by the lardist parameter (total distance in large movements) and plotted in cm (ZebraLab™ software, Viewpoint, Lyon, France). Data was collected from 3-4 larvae per treatment condition. The locomotor data were analysed by normalizing the locomotor activity of treated larvae against VHC-treated Scn1Lab mutant larvae.

[2] = tested on: 6-Hz (44 mA) psychomotor seizures in NMRI mice; experiment: Mouse 6-Hz (44 mA) psychomotor seizure model; assay type: in vivo; settings: i.p. injection 60 min before corneal stimulation
Description: Male NMRI mice (weight 25-30 g) were acquired from Charles River Laboratories (France) and housed in polyacrylic cages under a 14/10-hour light/dark cycle at 21° C. The animals were fed a pellet diet and water ad libitum, and were allowed to acclimate for 1 week before experimental procedures were conducted. Prior to the experiment, mice were isolated in polyacrylic cages with a pellet diet and water ad libitum for habituation overnight in the experimental room, to minimize stress. The antiseizure activity of compounds was investigated in the mouse 6-Hz (44 mA) psychomotor seizure model as described before [Copmans et al (2018) ACS Chem Neurosci. 9, 1652-1662.]. In brief, 500 μl (injection volume was adjusted to the individual weight) of VHC (0.5% sodiumcarboxymethylcellulose (NaCMC)/Tween80 in 0.9% NaCl) or treatment (valproate or clioquinol dissolved in VHC) was i.p. injected in NMRI mice and after 60 min psychomotor seizures were induced by corneal electrical stimulation (6 Hz, 0.2 ms rectangular pulse width, 3 s duration, 44 mA) using an ECT Unit 5780 (Ugo Basile, Comerio, Italy). Seizure durations were measured during the experiment by experienced researchers, familiar with the different seizure behaviours. In addition, seizure durations were determined by blinded video analysis to confirm or correct the initial observations. Data are expressed as mean±SD.

[3] = cited from earlier work
[4] = cited from earlier work; remark: listed apart in the source
[5] = tested on: cAMP-transporting ABC pumps; settings: possible targets ABCC4 and ABCC11; cited from earlier work
[6] = cited from earlier work; remark: listed apart in the source

Compound: O=C(O)c1cc(O)c2ccc(Cl)cc2n1 [7-chloro-kynurenic acid]
- activity after EKP exposure (locomotor activity relative to EKP only) [1]: not Active
- Phgdh activation (in words) (human Phgdh): could not activate Phgdh; also recorded: no induced activation of PHGDH

Compound: O=C(Oc1cccc2cccnc12)c1ccccc1 [benzoxyquine]
- Phgdh activation (in words) (human Phgdh): could not activate Phgdh

Compound: Oc1c(Cl)cc(Cl)c2cccnc12 [chloroxine]
- effect on EKP induced seizures (locomotor activity, actinteg units) [1]: significantly reduced EKP induced seizures
- reduction of epileptiform locomotor activity of Scn1Lab mutant group (Scn1Lab mutant larvae): > 60%

Compound: Oc1c(I)cc(Cl)c2cccnc12 [clioquinol]
- seizure duration [2]: trend towards reduced seizure duration
- activity after EKP exposure (locomotor activity relative to EKP only) [1]: superior activity
- effect on EKP induced seizures (locomotor activity, actinteg units) [1]: significantly reduced EKP induced seizures
- dose that did not produce toxicity in animals ([3]; animals, over 30 days, in all but one study): 100 mg/(kg day)
- dose with toxicity observed in a week ([3]; dogs, in a week): 400 mg/(kg day)
- dose with neurological toxicity in dogs ([3]; dogs, treated for over a month): exceeding 200 mg/(kg day)
- dose/concentration ratio in humans ([4]; doses of 250 or 500 mg): 0.64-1.4
- concentrations of free clioquinol in humans relative to hamsters (mean) ([4]; in vivo): 33 times
- effect on cAMP-transporting ABC pumps [5]: inhibits
- effect on the oxido-reduction reaction toward NADH generation (human Phgdh; compound itself, data not shown): does not affect
- dose with no apparent adverse effects ([6]; Alzheimer clinical trial, for weeks (10 mg/kg/day)): 750 mg/day
- dose with dose-limiting neurotoxicity and abdominal pain ([6]; humans (42.5 mg/kg/day)): 3200 mg/day
- dose received by patients without toxicity ([6]; humans, per day (~50 mg/(kg day))): 3.5 g

Compound: Oc1ccc(Cl)c2cccnc12 [cloxyquin, 5-Chloro-8-quinolinol]
- Phgdh activation (in words) (human Phgdh): activity comparable to clioquinol

Source: patent US20230103644A1, “TREATMENT OF EPILEPSY” (Katholieke Universiteit Leuven, priority 2020, published 2023)
